In ChEMBL document CHEMBL1201862, “PubChem BioAssay data set” (2004):
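Cultured in 96-well plates, cells were exposed to test compound for 48 hours across five concentrations. GI50 marks 50% less growth.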 The source made the active and inactive calls. Rule as the data show it: active = GI50 up to about 1.1 µM and inactive = higher.

Assays:
Assay in all cases: NCI tumour cell line growth inhibition, 48 h
CAKI-1 = system: CAKI-1
HL-60 = system: HL-60
K562 = system: K562
COLO 205 = system: COLO 205
ACHN = system: ACHN
MOLT-4 = system: MOLT-4
HT-29 = system: HT-29
EKVX = system: EKVX
NCI-H23 = system: NCI-H23
SW-620 = system: SW-620
UACC-62 = system: UACC-62
SNB-19 = system: SNB-19
KM12 = system: KM12
U-251 = system: U-251
LOX IMVI = system: LOX IMVI
TK-10 = system: TK-10
SK-OV-3 = system: SK-OV-3
SNB-75 = system: SNB-75

Measured: GI50

CC(=O)C1=C(O)C2C3c4c[nH]c5cccc(c45)CC3C(C)(C)N2C1=O (configuration not stated)
inactive: CAKI-1 > 100 µM | HL-60 3.05 µM | K562 45.7 µM | COLO 205 > 100 µM | ACHN 28.2 µM | MOLT-4 15.6 µM | HT-29 34.4 µM | EKVX 20.6 µM | NCI-H23 11.6 µM | SW-620 30.3 µM | UACC-62 44.1 µM | SNB-19 15.4 µM | KM12 40.5 µM | U-251 17.1 µM | LOX IMVI 16.2 µM | TK-10 46.5 µM | SK-OV-3 > 100 µM

CCOC(=O)C1N(S(=O)(=O)c2ccc(C)cc2)CCC12c1ccccc1NC2c1ccc(OC)c(OC)c1 (configuration not stated)
inactive: CAKI-1 > 100 µM | HL-60 27.7 µM | K562 34.2 µM | COLO 205 > 100 µM | ACHN > 100 µM | SNB-75 > 100 µM | HT-29 > 100 µM | EKVX > 100 µM | NCI-H23 > 100 µM | SW-620 27.4 µM | UACC-62 > 100 µM | SNB-19 > 100 µM | KM12 > 100 µM | U-251 > 100 µM | LOX IMVI > 100 µM | TK-10 > 100 µM | SK-OV-3 > 100 µM

CC(C)(C)C1=CC(=C2C(=O)C(=O)c3ccccc3C2=O)C=C(C(C)(C)C)C1=O
inactive: CAKI-1 52.1 µM | HL-60 29.4 µM | K562 32.1 µM | COLO 205 42.1 µM | ACHN 83.9 µM | SNB-75 > 100 µM | HT-29 > 100 µM | EKVX 35.5 µM | NCI-H23 32.7 µM | SW-620 36 µM | UACC-62 32.7 µM | SNB-19 > 100 µM | KM12 > 100 µM | U-251 > 100 µM | LOX IMVI 37.1 µM | TK-10 84.9 µM | SK-OV-3 > 100 µM

Cc1nc2cc(N)c(F)cc2[nH]1
inactive: CAKI-1 > 100 µM | HL-60 > 100 µM | K562 > 100 µM | COLO 205 > 100 µM | ACHN > 100 µM | MOLT-4 > 100 µM | HT-29 > 100 µM | EKVX > 100 µM | NCI-H23 > 100 µM | SW-620 > 100 µM | UACC-62 > 100 µM | SNB-19 > 100 µM | KM12 > 100 µM | U-251 > 100 µM | LOX IMVI > 100 µM | TK-10 > 100 µM | SK-OV-3 > 100 µM

O=C1C=C(O)C(=Cc2c(O)cc(O)cc2O)C(O)=C1
inactive: CAKI-1 > 100 µM | HL-60 > 100 µM | K562 > 100 µM | COLO 205 > 100 µM | MOLT-4 > 100 µM | SNB-75 > 100 µM | HT-29 > 100 µM | EKVX > 100 µM | NCI-H23 > 100 µM | SW-620 > 100 µM | UACC-62 > 100 µM | SNB-19 > 100 µM | KM12 > 100 µM | U-251 > 100 µM | LOX IMVI > 100 µM | TK-10 > 100 µM | SK-OV-3 > 100 µM

CC(C)=CC(=O)CC(=O)C(=O)NCCNC(=O)C(=O)CC(=O)C=C(C)C
inactive: CAKI-1 > 50 µM | COLO 205 > 50 µM | ACHN > 50 µM | SNB-75 > 50 µM | HT-29 > 50 µM | EKVX > 50 µM | NCI-H23 > 50 µM | SW-620 > 50 µM | UACC-62 > 50 µM | SNB-19 > 50 µM | KM12 > 50 µM | U-251 > 50 µM | LOX IMVI > 50 µM | TK-10 > 50 µM | SK-OV-3 > 50 µM

CCOC(=O)C(OCC1CC=CCC1)Sc1ccccc1 (configuration not stated)
inactive: CAKI-1 > 100 µM | HL-60 > 100 µM | K562 > 100 µM | COLO 205 > 100 µM | ACHN > 100 µM | SNB-75 > 100 µM | HT-29 > 100 µM | EKVX > 100 µM | NCI-H23 > 100 µM | SW-620 > 100 µM | UACC-62 > 100 µM | SNB-19 > 100 µM | KM12 > 100 µM | U-251 > 100 µM | LOX IMVI > 100 µM | TK-10 > 100 µM | SK-OV-3 > 100 µM

C#Cc1ccccc1N1C(=O)C=CC1=O
inactive: CAKI-1 > 100 µM | HL-60 > 100 µM | K562 > 100 µM | COLO 205 > 100 µM | ACHN > 100 µM | MOLT-4 > 100 µM | SNB-75 > 100 µM | HT-29 > 100 µM | EKVX > 100 µM | NCI-H23 > 100 µM | SW-620 > 100 µM | UACC-62 > 100 µM | SNB-19 > 100 µM | U-251 > 100 µM | TK-10 > 100 µM | SK-OV-3 > 100 µM

CC#COP(=O)(OCC)OCC
inactive: CAKI-1 > 100 µM | HL-60 17.7 µM | K562 > 100 µM | COLO 205 > 100 µM | ACHN > 100 µM | MOLT-4 > 100 µM | HT-29 > 100 µM | EKVX > 100 µM | NCI-H23 > 100 µM | SW-620 > 100 µM | UACC-62 > 100 µM | SNB-19 > 100 µM | KM12 > 100 µM | U-251 > 100 µM | LOX IMVI > 100 µM | TK-10 > 100 µM | SK-OV-3 > 100 µM

COC(=O)c1nn(-c2ccccc2)c(=O)cc1N=[N+]=[N-]
inactive: CAKI-1 > 100 µM | HL-60 > 100 µM | K562 > 100 µM | COLO 205 99.5 µM | ACHN > 100 µM | MOLT-4 > 100 µM | HT-29 > 100 µM | EKVX > 100 µM | NCI-H23 > 100 µM | SW-620 > 100 µM | UACC-62 > 100 µM | SNB-19 > 100 µM | KM12 > 100 µM | U-251 > 100 µM | LOX IMVI > 100 µM | TK-10 > 100 µM | SK-OV-3 > 100 µM

Cc1ccc(C2=NO[C@@H]3C(=O)N(c4ccc(Cc5ccc(N6C(=O)[C@H]7C(c8ccc(C)cc8)=NO[C@H]7C6=O)cc5)cc4)C(=O)[C@H]23)cc1
inactive: CAKI-1 > 100 µM | HL-60 > 100 µM | K562 > 100 µM | COLO 205 > 100 µM | ACHN > 100 µM | MOLT-4 > 10 µM | SNB-75 79.4 µM | HT-29 > 100 µM | EKVX > 100 µM | NCI-H23 > 100 µM | SW-620 > 100 µM | UACC-62 > 100 µM | KM12 > 100 µM | U-251 > 100 µM | LOX IMVI > 100 µM | TK-10 > 100 µM | SK-OV-3 > 100 µM

C/C(=C1/CCCC2(N=NCC2c2ccccc2)C1=O)c1ccccc1 (configuration not stated)
inactive: HL-60 8.95 µM | K562 12 µM | COLO 205 16.5 µM | ACHN 31.8 µM | MOLT-4 14.4 µM | SNB-75 30.3 µM | HT-29 20.5 µM | EKVX 28.3 µM | NCI-H23 16.6 µM | SW-620 69.8 µM | UACC-62 16.3 µM | SNB-19 66.4 µM | KM12 15.9 µM | U-251 23.8 µM | LOX IMVI 32.8 µM | TK-10 42.7 µM | SK-OV-3 30.7 µM

Cc1ccccc1Cn1nc2ccccc2cc1=O
inactive: CAKI-1 > 100 µM | K562 > 100 µM | COLO 205 > 100 µM | ACHN > 100 µM | SNB-75 22.1 µM | HT-29 > 100 µM | EKVX > 100 µM | NCI-H23 > 100 µM | SW-620 > 100 µM | UACC-62 > 100 µM | SNB-19 > 100 µM | KM12 > 100 µM | U-251 > 100 µM | LOX IMVI > 100 µM | TK-10 > 100 µM | SK-OV-3 > 100 µM

CC(C)NC(C)C(C)c1ccccc1 (configuration not stated)
inactive: CAKI-1 > 100 µM | K562 > 100 µM | COLO 205 > 100 µM | ACHN > 100 µM | MOLT-4 > 100 µM | SNB-75 > 100 µM | HT-29 > 100 µM | EKVX > 100 µM | NCI-H23 > 100 µM | SW-620 > 100 µM | UACC-62 > 100 µM | SNB-19 > 100 µM | KM12 > 100 µM | U-251 > 100 µM | LOX IMVI > 100 µM | TK-10 > 100 µM | SK-OV-3 > 100 µM

CCCC(=O)Nc1ccc(O)c2c1C1CCCCCC21 (configuration not stated)
inactive: HL-60 > 100 µM | K562 64.9 µM | COLO 205 > 100 µM | ACHN 71.8 µM | MOLT-4 56.9 µM | SNB-75 72.3 µM | HT-29 > 100 µM | EKVX > 100 µM | NCI-H23 > 100 µM | SW-620 > 100 µM | UACC-62 64 µM | SNB-19 > 100 µM | KM12 96.4 µM | U-251 > 100 µM | LOX IMVI > 100 µM | TK-10 > 100 µM | SK-OV-3 > 100 µM

COc1cccc(-c2cc(O)c3cc(NC(C)=O)ccc3n2)c1
inactive: CAKI-1 62.1 µM | COLO 205 22.4 µM | ACHN > 100 µM | MOLT-4 5.27 µM | HT-29 22 µM | EKVX 53 µM | NCI-H23 26.8 µM | SW-620 47.8 µM | UACC-62 17.4 µM | SNB-19 8.41 µM | KM12 23.5 µM | U-251 9.57 µM | LOX IMVI 22.5 µM | TK-10 > 100 µM | SK-OV-3 > 100 µM

COc1cc(C(=O)O[C@H]2CCC3CCC2N3C)cc(OC)c1OC (some centres not stated)
inactive: HL-60 63.7 µM | K562 > 100 µM | COLO 205 > 100 µM | ACHN > 100 µM | MOLT-4 > 100 µM | SNB-75 58.9 µM | HT-29 > 100 µM | EKVX > 100 µM | NCI-H23 > 100 µM | SW-620 > 100 µM | SNB-19 > 100 µM | KM12 > 100 µM | U-251 > 100 µM | LOX IMVI > 100 µM | TK-10 > 100 µM | SK-OV-3 > 100 µM
